Assay type in all cases: in vivo
Assay [1] concerns patient suffering from glaucoma. Nature of the assay: Topical ocular composition (Example 212) lowering intraocular pressure. The conditions noted are these: 0.50 wt % topical composition. The protocol:
Examples of such assays are described in the following reference, incorporated herein by reference: C. Liljebris, G. Selen. B. Resul, J. Sternschantz, and U. Hacksell, “Derivatives of 17-Phenyl-18, 19, 20-trinorprostaglandin F2α Isopropyl Ester: Potential Anti-glaucoma Agents”, Journal of Medicinal Chemistry, Vol. 38 (2) 1995, pp. 289-304.
Topical pharmaceutical compositions for lowering intraocular pressure are prepared by conventional methods and formulated as follows: […]
A compound according to this invention is used as the 6-aminoisoquinoline derivative. […]

The nature of assay [2]: Topical ocular composition (Example 212), hyperemia, redness and ocular irritation. The conditions noted are these: 0.50 wt % topical composition, drop as needed.
Assay [3] can be described thus: Topical ocular composition (Example 212), dry eye syndrome. Particulars: 0.50 wt % topical composition, drop twice per day.
A short description of assay [4]: Topical ocular composition (Example 212), allergic symptoms. The conditions noted are these: 0.50 wt % topical composition.
Assay [5] can be described thus: Topical ocular composition (Example 212), neuroprotective effect. The conditions noted are these: 0.50 wt % topical composition, drop 4 times per day.

The structures appear in SMILES notation. Where a name gives a salt, the structure may show the parent alone.

Take `O=C(Nc1ccncc1)c1ccc(C2CC2C(=O)Nc2ccc3cnccc3c2)cc1` (stereo not shown) [Example E118, 4-(2-(isoquinolin-6-ylcarbamoyl)cyclopropyl)-N-(pyridin-4-yl)benzamide]: in assay [1] (drop twice a day or as needed), the intraocular pressure result was “substantially decreases intraocular pressure”.

`CNC(=O)c1cccc(NCC(=O)Nc2ccc3cnccc3c2Cl)c1` [Example E119b, 3-(2-(5-chloroisoquinolin-6-ylamino)-2-oxoethylamino)-N-methyl benzamide]: the intraocular pressure result in assay [1] (drop twice a day or as needed) is listed as “substantially decreases intraocular pressure”.

Take `CNC(=O)c1cccc(NCS(=O)(=O)Nc2ccc3cnccc3c2)c1` [Example E136, 3-((N-isoquinolin-6-ylsulfamoyl)methylamino)-N-methylbenzamide]: the intraocular pressure entry in assay [1] (drop twice per day) was “substantially decreases intraocular pressure”.

Take `NCC(=O)Nc1ccc2cnccc2c1` [Example E40, 2-amino-N-isoquinoline-6-yl-acetamide dihydrochloride]: the “hyperemia, redness and ocular irritation” value in assay [2] was “substantially decreases hyperemia, redness and ocular irritation”.

For `O=C(CCl)Nc1ccc2cnccc2c1` [Example E1, 2-chloro-N-(isoquinolin-6-yl) acetamide], the dry eye syndrome entry in assay [3] is reported as “relieves dry eye syndrome”. Moreover, the allergic symptoms entry in assay [4] (drop twice per day) is reported as “substantially decreases allergic symptoms”.

In the case of `O=C(CN1CCOCC1)Nc1ccc2cnccc2c1` [Example E105, N-(isoquinolin-6-yl)-2-morpholinoacetamide], in assay [2], the “hyperemia, redness and ocular irritation” value was “substantially decreases hyperemia, redness and ocular irritation”.

For `N[C@@H](CSCC(C(=O)c1ccc(/C=C/C(=O)Nc2ccc3cnccc3c2)cc1)c1ccccc1)C(=O)O` (stereo partly drawn) [Example E207, (2R)-2-amino-3-(3-(4-((E)-3-(isoquinolin-6-ylamino)-3-oxoprop-1-enyl)phenyl)-3-oxo-2-phenylpropylthio)propanoic acid], in assay [5], the neuroprotective agent entry was “serves as a neuroprotective agent”. In addition, the intraocular pressure result in assay [1] (drop 4 times per day) is given as “substantially decreases intraocular pressure”.

As to `O=C(CNCc1ccccc1)Nc1ccc2cnccc2c1` [Example E58, 2-(benzylamino)-N-(isoquinolin-6-yl)acetamide], the intraocular pressure entry in assay [1] (drop twice per day) was “substantially decreases intraocular pressure”.

Regarding `O=C(NCc1ccccc1)Nc1ccc2cnccc2c1` [Example E88, 1-benzyl-3-(isoquinolin-6-yl)urea], the allergic symptoms entry in assay [4] (drop as needed) is listed as “substantially decreases allergic symptoms”.

Regarding `O=C(Nc1ccc2cnccc2c1)OCc1ccccc1` [Example E87, benzylisoquinolin-6-ylcarbamate], the dry eye syndrome result in assay [3] is recorded as “relieves dry eye syndrome”. For the same compound, the allergic symptoms entry in assay [4] (drop twice per day) is “substantially decreases allergic symptoms”.

The values above are taken from US10899714B2, “6-aminoisoquinoline compounds” (Aerie Pharmaceuticals, Inc., priority 2007, dated 2021).
